In one experiment the test system is full-length KDM7B. Briefly: Pull-down from transfected HEK293T nuclear lysates. The experiment is classed as binding. The settings on record: 100-fold excess competitor. Here is the method:
HEK293T cells were transiently transfected with either a full-length wild-type KDM7B, or an aromatic cage inactivating mutant KDM7B (Y14A, W29A).[20]
Capture was performed with 1 μM probe incubated in pre-cleared lysate, recovered with streptavidin-conjugated magnetic beads, then washed and eluted by heating in denaturing solution. 100-fold excess OC9 or OC9 V10A were used as competitors. […] The upper left quadrant indicates >5-fold difference in recovered protein (based on T-test difference of mean log 2 (LFQ) values) and p-value threshold <0.05.

The target of another experiment is T1, HisTrx-KDM7B PHD (Homo sapiens, UniProt Q9UPP1).
T1 construct: KDM7B 1-66; made in house
T1 sequence (Q9UPP1 1-66 isoform Q9UPP1-2): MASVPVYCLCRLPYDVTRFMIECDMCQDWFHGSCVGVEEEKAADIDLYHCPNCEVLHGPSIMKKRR
The experiment in a line: ITC binding. Here is the method:
Figure S8. ITC titration curves for His-Trx-KDM7B PHD.
Top panels are raw heat of injection, bottom panels are normalised data fitted to 1:1 binding model.
His-Trx = His6+thioredoxin. For […]
results of fit and conditions see Figure S10. […]
Figure S10. ITC results: Tabulated values from 1:1 binding model and conditions ITC buffer = 50 mM HEPES, 100 mM NaCl, pH 7.4, 0.2 µm filtered), at 25 °C. Dual = PHD+JmjC. HisTrx = His 6+thioredoxin tag, GST = glutathione S -transferase tag, ZB = Z -basic tag. Syringe contained peptide solution in buffer. Cell contained protein solution in buffer.
(1 picture or pasted object on this page, not shown here)

A further experiment deals with KDM7A dual domain (Homo sapiens, UniProt Q6ZMT4). Briefly: MALDI-TOF-MS KDM7 activity assay (H3 peptide demethylation). The experiment is classed as biochemical. The conditions noted are these: from <5% without OC9. How it is done: Fig. 5 KDM7 PHD-finger inhibition by OC9 modulates dual domain JmjC activity. (a) (i–iii) OC9 inhibits demethylation of H3K9me2, with or without K4me3, by KDM7B (0.4 μM) on H3 peptide (2.5 μM). […] (b) (i–iii) OC9 enhances demethylation of H3K4me3K9me2 by KDM7A (0.55 μM) on H3 peptide (2.5 μM), and (iv) enhances KDM7A (0.5 μM) demethylation of calf histone extracts (50 μg). […] Inset MALDI-TOF-MS overlays are from respective highest OC9 concentration points compared to DMSO alone. KDM7 PHD-finger only proteins had no demethylase activity (Fig. S40 ^†). Calf histone H3K9me2 was quantitated relative to H4 band intensities at each time point, normalised to DMSO at t = 0. Full Western blots available in Fig. S42. ^† Relative rates (Krel min^−1) from a one-phase decay model, average from N = 3 independent experiments. […] The enzyme heading of the panel (KDM7B / KDM7A) was put in front of them. / DMSO is the vehicle control. Its printed rates (0.30 min^-1 in a, 0.04 min^-1 in b) are included because they are printed with its name.
In contrast to KDM7B, KDM7A lacks activity against H3K4me3K9me2, but demethylates H3_1–21K9me2.[57] OC9, however, restored the activity of KDM7A against H3_1–21K4me3K9me2 from <5% to a level (∼30%) that approached demethylation on H3_1–21K9me2 with DMSO alone (∼40%) (Fig. 5b and S39 ^†). […]

Like-named read-outs stand apart in the source and are kept apart here. Peptide text beside a SMILES is read from it.

KDM7A dual domain, sequence (Q6ZMT4 38-480 limits assumed): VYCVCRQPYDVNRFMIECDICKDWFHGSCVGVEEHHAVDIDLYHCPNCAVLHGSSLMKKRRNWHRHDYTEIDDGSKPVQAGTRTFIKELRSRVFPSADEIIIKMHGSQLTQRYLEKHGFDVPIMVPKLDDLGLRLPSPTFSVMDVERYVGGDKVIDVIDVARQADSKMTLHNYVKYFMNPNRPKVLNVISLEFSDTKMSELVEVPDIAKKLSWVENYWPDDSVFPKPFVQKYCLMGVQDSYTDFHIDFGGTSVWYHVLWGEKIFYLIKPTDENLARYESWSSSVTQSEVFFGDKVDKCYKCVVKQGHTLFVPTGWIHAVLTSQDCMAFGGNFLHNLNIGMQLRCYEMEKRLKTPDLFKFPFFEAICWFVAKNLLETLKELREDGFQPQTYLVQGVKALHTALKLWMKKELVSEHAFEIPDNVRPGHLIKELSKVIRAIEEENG

Consider `CC(C)C[C@@H]1NC(=O)[C@H](Cc2ccc(O)cc2)NC(=O)[C@H](Cc2ccc(O)cc2)NC(=O)CSC[C@@H](C(N)=O)NC(=O)[C@H]([C@@H](C)O)NC(=O)[C@H](CCCNC(=N)N)NC(=O)[C@H](Cc2ccccc2)NC(=O)[C@H](C(C)C)NC(=O)[C@H](CO)NC(=O)[C@@H]2CCCN2C(=O)[C@H](Cc2ccc(O)cc2)NC(=O)[C@@H]2CCCN2C(=O)[C@H](Cc2c[nH]cn2)NC(=O)[C@H]([C@@H](C)O)NC1=O` [OC9] (HELM PEPTIDE1{[O=C(C[*:3])[*:2]].Y.Y.L.T.H.P.Y.P.S.V.F.R.T.C.[am]}$PEPTIDE1,PEPTIDE1,1:R3-15:R3$$$V2.0), for which the “competition of OC9-Bt pull-down of KDM7B” value with full-length KDM7B is “substantially reduced KDM7B recovery”. For the same compound, the Kd at HisTrx-KDM7B PHD (50 mM HEPES, 100 mM NaCl, pH 7.4, 25 °C, 1:1 binding model, His6+thioredoxin tag, read-out: ITC KD, HisTrx-KDM7B PHD) is 8.27 nM; at HisTrx-KDM7B PHD (read-out: ITC pKD, HisTrx-KDM7B PHD (converted)) it was 7.94 nM. Besides, the “ITC ΔH, HisTrx-KDM7B PHD” value on HisTrx-KDM7B PHD (25 °C) is on record as -60.0 ± 1.3 kJ mol -1. Further, the “ITC N, HisTrx-KDM7B PHD” value at HisTrx-KDM7B PHD (stoichiometry) is reported as 0.86 ± 0.01. Further, the “activity of KDM7A against H3_1–21K4me3K9me2 restored by OC9 (demethylation level)” value on KDM7A dual domain is about 30%.

The values above are taken from PMC10321576, “Cyclic peptides target the aromatic cage of a PHD-finger reader domain to modulate epigenetic protein function” (Chemical Science, 2023).
